Consider nine compounds from patent US20100004234A1, “SPECIFIC KINASE INHIBITORS” (Kosan Biosciences Incorporated, priority 2004, published 2010).

Where two headings read alike, the source gives them in different places.

The subject of experiment [1] is HT29 (Human colon, B-Raf V599E). Nature of the experiment: Cell proliferation assay (Cell Titer Glo). The experiment is classed as cell-based. On the procedure: (§1) In one illustrative method, cells are treated with various concentrations of the inhibitor in 96 well plates, incubated at 37° C./5% CO2 for three days, and analyzed using the Cell Titer Glo kit (Promega).
(§2) COLO829 is a human melanoma cell line. HT29 is a human colon cancer cell line. Both cell lines have a V600E B-Raf mutation. SKOV3 is an ovarian cancer cell line having wild-type B-Raf. EKR2 (extra-cellular signal regulated kinase 2) is a kinase in the Ras/B-Raf MAP kinase cascade pathway.
Background: Cellular ATP, detected with luciferase, serves as a proxy for viable cell number.

Experiment [2] deals with DU4475 (Human breast, B-Raf V599E). Nature of the experiment: Cell proliferation assay (Cell Titer Glo). The experiment is classed as cell-based. On the procedure:
as §1

Experiment [3] deals with WM266-4 (Human melanoma, B-Raf V599D). Briefly: Cell proliferation assay (Cell Titer Glo). The experiment is classed as cell-based. On the procedure:
as §1

Experiment [4] has as its system A375 (Human melanoma, B-Raf V599E). Briefly: Cell proliferation assay (Cell Titer Glo). It counts as cell-based. As to the method: as §1
Experiment [5] has as its system A549 (NSCLC, B-Raf wild-type). Nature of the experiment: Cell proliferation assay (Cell Titer Glo). It counts as cell-based. As to the method:
as §1

Experiment [6] relates to COLO829 (Human melanoma, B-Raf V599E). Briefly: Cell proliferation assay (Cell Titer Glo). It counts as cell-based. On the procedure:
as §1, §2

Experiment [7] concerns EOL-1 (Human leukemia FLP1L1-PDGFRA). Briefly: Cell proliferation assay (Cell Titer Glo). The experiment is classed as cell-based. As to conditions: Homo sapiens, EOL1, read-out: Kinase Inhibitor IC50. On the procedure:
as §1

Experiment [8] deals with MV4-11 (Human leukemia Flt3-ITD). Briefly: Cell proliferation assay (Cell Titer Glo). The experiment is classed as cell-based. As to conditions: Homo sapiens, MV4-11, read-out: Kinase Inhibitor IC50. As to the method: as §1
Experiment [9] relates to P815 (Mouse mastocytoma, KIT D814Y). Nature of the experiment: Cell proliferation assay (Cell Titer Glo). As to conditions: Mus musculus. The experiment is classed as cell-based. As to the method:
as §1

The test system of another experiment is BCCs in Ptc+/− mice. As to conditions: topical; cited from earlier work.
The test system of experiment [10] is ASZ001 (Basal cell carcinoma). Nature of the experiment: Cell proliferation assay (Cell Titer Glo). It counts as cell-based. On the procedure: as §1
A further experiment has as its system PKA, PKC or Raf. The conditions noted are these: cited from earlier work.
The target in experiment [11] is T1, MEK1 (Homo sapiens, UniProt Q02750). As to conditions: cited from earlier work.
Experiment [12] relates to SKOV3 (ovarian cancer cell line, wild-type B-Raf). Briefly: Cell proliferation assay. It counts as cell-based. The conditions noted are these: Homo sapiens, SK-OV-3; Table 7; SKOV3 ovarian cancer, wild-type B-Raf; read-out: Cell Line IC50 SKOV3. As to the method:
as §1, §2

Experiment [13] concerns the target ERK2 (UniProt P28482). The experiment is classed as biochemical. Further details: "the target Cys 172 residue. On the procedure:
(§3) In either case, the time dependent inactivation can be dampened by the presence of a competing substrate, in this case ATP.
(§4) For covalent inhibitors, plots of log (activity) versus time provide apparent first-order rate constants (kobsd) of enzyme activity loss. If these assays are performed at varying concentrations of inhibitor, a series of first-order plots is obtained and kobsd obtained at each inhibitor concentration. […] Such molecules may be competitive inhibitors but should not show time-dependent inactivation.
(§5) Inhibition progress curve analysis was performed using continuous, colorimetric, or fluorimetric assays. All experiments were done at 1 mM ATP, with the exception of KDR (at 5 mM ATP).
(§6) MEK1 assays were performed using pre-incubation experiments with radioactive [^32P]ATP and filter binding of product. All other kinases were analyzed using progress curve analysis from a continuous spectrophotometric assay.

The next experiment concerns the target rat MEK1 (Rattus norvegicus, UniProt Q01986). As to conditions: cited from earlier work.
The target in experiment [14] is T1, MEK1. Briefly: Time-dependent kinase inhibition kinetics (pre-incubation, [32P]ATP filter binding). The experiment is classed as biochemical. As to the method: Typically, one measures the increase in inhibition of protein kinase activity in the presence of inhibitor over time. In one method, aliquots of a “pre-incubation” reaction mixture containing enzyme and inhibitor are assayed for activity (initial velocities) over time; increased inhibition or decreased initial velocities will be observed over time as the Michael adduct forms (Walsh, C, Enzyme Reaction Mechanisms, W.H. Freeman & Co., 1979, pp 86-94). In a second method, the time dependent loss of activity is measured as “progress curves” that measure and analyze product formed (e.g. ADP) versus time (Morrison & Walsh, Adv. Enzymol Relat Areas Mol. Biol. 1988, 61, 201-301). In either case, the time dependent inactivation can be dampened by the presence of a competing substrate, in this case ATP.
MEK1 and many other protein kinases that can be targets of the compounds useful in the methods of the invention can be obtained commercially (Invitrogen; Carlsbad, Calif.) or prepared using standard molecular biology techniques. After activation by phosphorylation, they are assayed for their ability to phosphorylate a target kinase or surrogate substrate. For example, MEK1 can be assayed in a mixture containing MEK1 (30 nM) and ERK1 (2 μM), [γ-^32P]ATP (10 uM) and MgCl2 in Mops buffer pH 7.6. Phosphorylation can be measured by isolating [γ-^32P]-phosphorylated ERK1 on phosphocellulose paper, and counting radioactive product. Alternatively, a coupled enzyme system may be used in which a product of the kinase reaction, such as ADP, is measured by analysis with a secondary system that converts that product (e.g. ADP) to an easily measurable entity (e.g. NADH); often, such coupled systems can be measured by convenient spectrophotometry assays.
To measure time-dependent inhibition using the “pre-incubation method”, MEK1 (or other kinase) is incubated with varying amounts of the lactone inhibitor; […]. Aliquots are removed at various times, added to a solution containing substrates [γ-^32P]ATP, ERK1 (or other substrate), and the other components of the reaction, and initial rates are determined as a measure of remaining enzyme activity.
For covalent inhibitors, plots of log (activity) versus time provide apparent first-order rate constants (kobsd) of enzyme activity loss. If these assays are performed at varying concentrations of inhibitor, a series of first-order plots is obtained and kobsd obtained at each inhibitor concentration. To measure time-dependent inhibition using the “progress-curve method” (see references cited above and Kuzmic et al., Methods Enzymol 2004; 383: 366-81), ERK (or other kinase) is treated with varying amounts of the lactone inhibitor, and the formation of ADP is measured continuously by a coupled assay. […] Such molecules may be competitive inhibitors but should not show time-dependent inactivation.
Those of skill in the art will recognize that within the set of compounds useful in the methods of the invention, significant variability in specificity can be achieved, allowing one to identify optimal compounds for different applications. Inhibition progress curve analysis was performed using continuous, colorimetric, or fluorimetric assays. All experiments were done at 1 mM ATP, with the exception of KDR (at 5 mM ATP).
as §6

Experiment [15] concerns the target ERK2 (UniProt P28482). It counts as biochemical. The conditions noted are these: ERK2. Further details: Ki; other: ERK2; 1 mM ATP; kinact; T1/2; kinact/Ki; "the target Cys 172 residue. On the procedure:
as §3, §4, §5, §6

The test system of experiment [16] is ERK1/2 activation in human T cells. As to conditions: tested at 0.3 to 3 μM; cited from earlier work.
[17] abbreviates: HT29 (Human colon, B-Raf V599E), Tables 1 and 4, read-out: Kinase Inhibitor IC50.
[18] abbreviates: DU4475 (Human breast, B-Raf V599E), Tables 1 and 4, read-out: Kinase Inhibitor IC50.
The mark [19] stands for this setting: WM266-4 (Human melanoma, B-Raf V599D), Tables 1 and 4, read-out: Kinase Inhibitor IC50.
Where [20] appears, read: A375 (Human melanoma, B-Raf V599E), Tables 1 and 4, read-out: Kinase Inhibitor IC50.
Where [21] appears, read: A549 (NSCLC, B-Raf wild-type), Tables 1 and 4, read-out: Kinase Inhibitor IC50.
The mark [22] stands for this setting: HT-29, Table 7, HT29 human colon cancer, V600E B-Raf, read-out: Cell Line IC50 HT29.
Where [23] appears, read: COLO-829, Table 7, COLO829 human melanoma, V600E B-Raf, read-out: Cell Line IC50 COLO829.

Sequence of rat MEK1 (Q01986 whole entry): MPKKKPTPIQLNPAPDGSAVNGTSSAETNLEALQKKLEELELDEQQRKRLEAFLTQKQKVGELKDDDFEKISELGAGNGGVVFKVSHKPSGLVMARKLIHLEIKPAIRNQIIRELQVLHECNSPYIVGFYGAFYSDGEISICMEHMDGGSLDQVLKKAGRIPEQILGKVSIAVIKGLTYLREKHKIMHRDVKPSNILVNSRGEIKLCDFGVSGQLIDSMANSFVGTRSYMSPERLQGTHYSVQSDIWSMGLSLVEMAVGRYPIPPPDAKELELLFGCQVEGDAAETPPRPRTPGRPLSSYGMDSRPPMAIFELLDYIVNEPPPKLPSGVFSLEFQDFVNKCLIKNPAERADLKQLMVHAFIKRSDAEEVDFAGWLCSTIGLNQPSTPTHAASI

Consider `COc1cccc(-c2cc(=O)c3ccccc3o2)c1N` [PD 98059], for which the IC50 (commonly the concentration at which inhibition is half-maximal) was determined as 5.5 µM in experiment [1] (setting [17]); 56 µM in experiment [2] (setting [18]); 21 µM in experiment [3] (setting [19]); 43 µM in experiment [4] (setting [20]); 48 µM in experiment [5] (setting [21]).
`CNC(=O)c1cc(Oc2ccc(NC(=O)Nc3ccc(Cl)c(C(F)(F)F)c3)cc2)ccn1` [BAY 43-9006, Sorafenib]: the IC50 in experiment [1] (Homo sapiens, HT-29, read-out: Kinase Inhibitor IC50) came out at 4.7 µM; in experiment [6] (Homo sapiens, COLO-829, read-out: Kinase Inhibitor IC50), 6 µM; in [2] (Homo sapiens, DU-4475, read-out: Kinase Inhibitor IC50), 3.6 µM; in [3] (Homo sapiens, WM 266-4, read-out: Kinase Inhibitor IC50) it was 5.4 µM; in experiment [7] it was 0.00023 µM; in experiment [4] (Homo sapiens, A-375, read-out: Kinase Inhibitor IC50), 4.3 µM. Further, the IC50 in experiment [8] worked out at 0.0023 µM; in experiment [5] (Homo sapiens, A549, read-out: Kinase Inhibitor IC50), 5.5 µM; in [9] (P815, read-out: Kinase Inhibitor IC50), 0.31 µM. Moreover, the 50% growth inhibitory concentration (GI50) (as a rule, the concentration giving 50% growth inhibition) in experiment [6] (Homo sapiens, COLO-829) was found to be 6 µM; in experiment [9] (P815), 0.31 µM.
With `CCOC(=O)c1ccc(C#Cc2ccc3c(c2)C(C)(C)CCS3)nc1` [Tazarotene], in the experiment with BCCs in Ptc+/− mice, the “inhibition of development of BCCs” value is more than 85%. For the same compound, the 50% inhibitory concentration (IC50) in experiment [10] (ASZ001 (Basal cell carcinoma), read-out: Kinase Inhibitor IC50) is 10 µM; in experiment [10] (BCC cell line ASZ001 in culture, read-out: IC50) it was approximately 10 µM.
As to `COc1cc(O)c2c(c1)CCC[C@H](O)[C@H](O)C(=O)/C=C\C[C@H](C)OC2=O` [L-783,277], in the experiment on PKA, PKC or Raf, the “inhibition of PKA, PKC or Raf” value is given as “not”. In addition, on MEK1 [11] (60 min. pre-incubation), the “reduction of the IC50 value for MEK1 by pre-incubation” value was 10 fold. On MEK1 [11] (MEK1), the IC50 was 0.004 µM.
With `C[C@H]1C/C=C\C(=O)[C@@H](O)[C@@H](O)C[C@H]2O[C@@H]2c2cc(O)cc(O)c2C(=O)O1` [Compound II, 4-O-desmethylhypothemycin], the IC50 was 1.8 µM in experiment [12], 0.1 µM in experiment [1] (setting [22]) and 0.038 µM in experiment [6] (setting [23]). At ERK2 [13], the “ERK2 Inhibition kinact.” value was 3.3 ± 0.4 × 10^−3 sec^−1. Further, the Ki at ERK2 [13] (Table 7; read-out: ERK2 Inhibition Ki) worked out at 2.2 ± 0.4 µM.
As for `COc1cc(O)c2c(c1)/C=C/C[C@H](O)[C@H](O)C(=O)/C=C\C[C@H](C)OC2=O` [(5Z)-7-oxozeaneol], the IC50 at rat MEK1 is 0.411 µM.
In the case of 5,6-Dihydrohypothemycin, the IC50 in experiment [1] (setting [17]) was 15 µM; in experiment [6] (COLO829 (Human melanoma, B-Raf V599E), Tables 1 and 4, read-out: Kinase Inhibitor IC50) it was 3.7 µM; in experiment [2] (setting [18]), 46 µM; in experiment [3] (setting [19]), 15 µM; in experiment [4] (setting [20]), more than 50 µM; in experiment [5] (setting [21]) it was 107 µM. In addition, the kinact/Ki entry at MEK1 [14] and at ERK2 [15] was “None” throughout. For the same compound, the Ki was determined as 3 µM at MEK1 [14] (1 mM ATP) and 28 µM at ERK2 [15] (1 mM ATP, read-out: Ki). Further, the kinact result on MEK1 [14] (1 mM ATP) and on ERK2 [15] (1 mM ATP) was “None” throughout.
Turning to `C[C@H]1C/C=C\C(=O)[C@@H](O)[C@@H](O)C[C@H]2O[C@@H]2c2cc(OCC3CCCN(C)C3)cc(O)c2C(=O)O1` (stereo partly shown) [V], the results for the IC50 in experiment [12], in [1] (setting [22]) and in experiment [6] (setting [23]) were 15 µM, 0.6 µM and 0.079 µM, respectively. The “ERK2 Inhibition kinact.” value at ERK2 [13] (Table 7) is recorded as 1 ± 0.1 × 10^−3 sec^−1. In addition, at ERK2 [13] (read-out: ERK2 Inhibition Ki; Table 7), the Ki was found to be 0.94 ± 0.58 µM.
With `C[C@H]1CCCC(=O)CCC/C=C/c2cc(O)cc(O)c2C(=O)O1` [zearalenone], the “inhibition of the activation of ERK1/2” value in [16] is recorded as “not”.
